Test results published in patent US20250177481A1, “SCO-spondin-derived polypeptides for enhancing synaptic transmission” (AXOLTIS PHARMA, priority 2021, published 2025).
Positions of bridges follow the written chain, without caps; N, C: chain ends. No end group written: not given here.

Key:
[1] = test system: basal excitatory synaptic transmission at CA3-CA1 synapses; assay: fEPSP input-output (I/O) recordings in CA1 of mouse hippocampal slices; assay type: cell-based, C57Bl6/J mice; conditions: NX218 250 μg/mL; for Normalized fEPSP slope: normalized to max slope in vehicle, mean of 10 slices
Procedure: Comparison of postsynaptic responses in control versus NX218 peptide conditions were assessed.
Five (C57Bl6/J) male mice 4-5 weeks-old were obtained from Charles River, France and housed in an animal facility. Animal care was compliant with national and local Ethics committee recommendations. Ten Sagittal hippocampal brain slices (2 per mouse) were obtained using standard brain slicing methods (Knobloch et al. 2007). Mice were anesthetized with 5% isoflurane and then decapitated. Brain was dissected out of the cranium and immediately immersed in ice-cold freshly prepared artificial cerebrospinal fluid (aCSF) containing: 124 mM NaCl, 3.75 mM KCl, 2 mM MgSO4, 2 mM CaCl2, 26.5 mM NaHCO3, 1.25 mM NaH2PO4, 10 mM glucose, continuously oxygenated (95% O2, 5% CO2) (pH=7.4) for a total duration of 3-4 minutes. Acute slices (350 μm thick) were prepared using a vibratome (VT 1000S; Leica Microsystems, Bannockburn, IL). Sections were incubated in standard aCSF (124 mM NaCl, 3.75 mM KCl, 2 mM MgSO4, 2 mM CaCl2, 26.5 mM NaHCO3, 1.25 mM NaH2PO4, 10 mM glucose) at room temperature for at least 1 h before recordings.
For electrophysiological recordings, a single slice was placed in the recording chamber (room temperature), submerged and continuously superfused with gassed aCSF (95% O2, 5% CO2; pH=7.4) at a constant rate (2 mL min^−1) for the reminder of the experiment. Extracellular field excitatory postsynaptic potentials (fEPSPs) were recorded in the CA1 stratum radiatum using a glass micropipette filled with aCSF. fEPSPs were evoked by the electrical stimulation of Schaffer collateral-commissural pathway at 0.1 Hz (i.e., a single pulse every 10 s) with a glass stimulating electrode (borosilicate capillary glass with filament, standard wall; OD: 1.5 mm; ID: 0.86 mm; Length: 75 mm; ref: W3 30-0060 from Harvard Apparatus) placed in the stratum radiatum.
After 10 minutes of stabilization, basal synaptic transmission was assessed. […] This procedure was repeated 3 times, 30 seconds interval for each session. A single session final I/O curve was obtained by plotting the averaged rationalised slopes of fEPSPs as a function of the stimulation intensity.
The signal was amplified with an Axopatch 200B amplifier (Molecular Devices, Union City, CA) digitized by a Digidata 1322A interface (Axon Instruments, Molecular Devices, US) and sampled at 10 kHz. Recordings were acquired using Clampex (Molecular Devices) and analyzed with Clampfit (Molecular Devices).
All data was normalized from the fEPSP maximum slope recorded in control condition (during vehicle bath application). […] Potential outliers were identified for exclusion using the following criteria: >3 standard deviations away from the group mean in either direction.

[2] = test system: scopolamine-induced spatial short-term working memory deficits in mice; assay: Y-maze spontaneous alternation in the scopolamine mouse model of amnesia; assay type: in vivo, Swiss mice
Procedure: Male Swiss mice, weighing 30-35 g, from JANVIER (Saint Berthevin, France), were housed in groups with access to food and water ad libitum, except during behavioral experiments. They were kept in a temperature and humidity-controlled animal facility on a 12 h/12 h light/dark cycle (lights off at 07:[…]). Mice were numbered by marking their tail with permanent markers. All animal procedures were conducted in strict adherence to the European Union directive of Sep. 22, 2010 (2010/63/UE). In each cage (n=6 per cage), treatment regimen was the same. Animals were tested in a random and blind manner.
Donepezil (DPZ) used as positive control was administered per os at a dose of 1 mg/kg once 1 h before the YM test.
Scopolamine was administered at a dose of 0.5 mg/kg by subcutaneous injection 30 minutes before the YM session.
After administration of compounds at different timepoints all animals were tested for spontaneous alternation performance in the YM, an index of spatial working memory. The YM was designed according to Itoh and collaborators (1993) and Hiramatsu and Inoue (1999) and is made of grey polyvinylchloride. Each arm is 40-cm long, 13-cm high, 3-cm wide at the bottom, 10-cm wide at the top, and converging at an equal angle. Each mouse was placed at the end of one arm and allowed to move freely through the maze during an 8-min session. The series of arm entries, including possible returns into the same arm, were checked visually. An alternation was defined as entries into all three arms on consecutive occasions. The number of maximum alternations is therefore the total number of arm entries minus two and the percentage of alternation was calculated as (actual alternations/maximum alternations)×100. Parameters included the percentage of alternation, called memory index, and total number of arm entries, called exploration index (Maurice et al., 1996, 1988; Meunier et al., 2006; Villard et al., 2009, 2011).
Animals showing an extreme behavior (alternation percentage <20% or >90% or number of arm entries <10) would have been discarded from the calculation. No animal was discarded accordingly.

W-S-G-W-S-S-C-S-R-S-C-G [NX218] (WSGWSSCSRSCG; disulfide 7-11 (inferred))
change of basal excitatory synaptic transmission vs control condition (whole I/O curve) [1]: statistical increase | Normalized fEPSP slope ([1]; stimulation intensity 0 µA): 0.09% | Normalized fEPSP slope ([1]; stimulation intensity 50 µA): 30.78% | Normalized fEPSP slope ([1]; stimulation intensity 100 µA): 71.26% | Normalized fEPSP slope ([1]; stimulation intensity 150 µA): 110.51% | Normalized fEPSP slope ([1]; stimulation intensity 200 µA): 134.44% | Normalized fEPSP slope ([1]; stimulation intensity 250 µA): 149.89% | Normalized fEPSP slope ([1]; stimulation intensity 300 µA): 156.80% | Normalized fEPSP slope ([1]; stimulation intensity 350 µA): 160.72% | Normalized fEPSP slope ([1]; stimulation intensity 400 µA): 164.01% | Normalized fEPSP slope ([1]; stimulation intensity 450 µA): 164.39% | Normalized fEPSP slope ([1]; stimulation intensity 500 µA): 166.29% | Normalized fEPSP slope ([1]; stimulation intensity 550 µA): 167.00% | Normalized fEPSP slope ([1]; stimulation intensity 600 µA): 167.37% | Normalized fEPSP slope ([1]; stimulation intensity 650 µA): 168.66% | Normalized fEPSP slope ([1]; stimulation intensity 700 µA): 169.65% | Normalized fEPSP slope ([1]; stimulation intensity 750 µA): 169.89% | Normalized fEPSP slope ([1]; stimulation intensity 800 µA): 170.46% | Normalized fEPSP slope ([1]; stimulation intensity 850 µA): 171.65% | effect on scopolamine-induced spatial short-term working memory impairments (Y-maze) ([2]; 2.5 mg/kg i.p. (lowest tested dose) 24 h before the test): efficacy was already demonstrated | effect on scopolamine-induced spatial short-term working memory impairments (Y-maze) ([2]; 5 mg/kg i.p. 2 h before the test, data not shown): only partial | effect on scopolamine-induced spatial short-term working memory impairments (Y-maze) ([2]; 5 mg/kg i.p. 24 h before the test, data not shown): complete reversal effect | effect on scopolamine-induced spatial short-term working memory impairments (Y-maze) ([2]; 5 mg/kg i.p. 48 h before the test, data not shown): partially blocked | effect on scopolamine-induced spatial short-term working memory impairments (Y-maze) ([2]; 10 mg/kg i.p. 48 h before the test, data not shown): completely counteracted | effect on scopolamine-induced spatial short-term working memory impairments (Y-maze) ([2]; 15 mg/kg i.p. once 48 h before the test, data not shown): partially blocked | dose with maximum effect on scopolamine-induced memory impairments (Y-maze) ([2]; i.p. once 24 h before the test, bell-shaped dose-response curve): 10 mg/kg | spontaneous alternance in Y-maze ([2]; scopolamine + 10 mg/kg i.p. 24 h before test, scopolamine alone 45, control 70, n=6, 10 mg/kg): 71%
